Read-outs that look alike come from different tables or passages of the source.
Key:
Cl. chauvoei = assay: M.I.C. against anaerobic bacteria, Cl. chauvoei; format: cell-based; details: strain A9561
[1] = tested on: Pseudomonas aeruginosa A9843A; format: in vivo, mice; details: mouse, in vivo
Pseudomonas aeruginosa [2] = assay: Minimum Inhibitory Concentration, tube dilution, overnight incubation at 37° C.; format: cell-based
Pseudomonas aeruginosa [3] = assay: Minimum Bactericidal Concentration of BL-P1937, at least 99.9% kill, three inoculum sizes; format: cell-based
Description: The bactericidal in vitro activity of BL-P1937 against Pseudomonas aeruginosa strains was also determined. Three tests were run, using initial inoculum sizes of 2.4 × 10^5, 1.6 × 10^5 and 1.4 × 10^5 cells/ml., respectively, and the M.B.C. was defined as the lowest concentration of antibiotic in mcg./ml. needed to kill at least 99.9% of viable Pseudomonas cells.

[4] = mice, 40 mg./kg. i.m., Literature values, cited from earlier work
[5] = mice, 40 mg./kg. i.m., Literature values, cited from earlier work; remark: listed apart in the source

## CC1(C)S[C@@H]2[C@H](NC(=O)[C@H](NC(=O)c3n[nH]c(=O)[nH]c3=O)c3ccc(O)cc3)C(=O)N2[C@H]1C(=O)O [BL-P1908, sodium D(-)-6-(α-(1,2,4-triazine-3,5-dione-6-carboxamido)-4-hydroxyphenylacetamido)penicillanate]
Cl. chauvoei
  MIC: 4 µg/mL
[1]
  equally effective dosage, drug alone: 5 mg/kg

## CC1(C)S[C@@H]2[C@H](NC(=O)[C@H](NC(=O)c3n[nH]c(=S)[nH]c3=O)c3ccc(O)cc3)C(=O)N2[C@H]1C(=O)O [BL-P1937, sodium D(-)-6-(α-(1,2,4-triazine-3-thione-5-one-6-carboxamido)-4-hydroxyphenylacetamido)-penicillanate]
Pseudomonas aeruginosa [2]; strain A9910, Test 1
  MIC: 1 µg/mL
Pseudomonas aeruginosa [2]; strain A9910, Test 2
  MIC: 2 µg/mL
Pseudomonas aeruginosa [2]; strain A9910, Test 3
  MIC: 4 µg/mL
Pseudomonas aeruginosa [2]; strain A9926, Test 1
  MIC: 2 µg/mL
Pseudomonas aeruginosa [2]; strain A9926, Test 2
  MIC: 4 µg/mL
Pseudomonas aeruginosa [2]; strain A9926, Test 3
  MIC: 2 µg/mL
Pseudomonas aeruginosa [2]; strain A20126, Test 2
  MIC: 8 µg/mL
Pseudomonas aeruginosa [2]; strain A20126, Test 3
  MIC: 4 µg/mL
Pseudomonas aeruginosa [2]; strain A20128, Test 1
  MIC: 2 µg/mL
Pseudomonas aeruginosa [2]; strain A20128, Test 2
  MIC: 2 µg/mL
Pseudomonas aeruginosa [2]; strain A20128, Test 3
  MIC: 2 µg/mL
Pseudomonas aeruginosa [2]; strain A20227, Test 1
  MIC: 4 µg/mL
Pseudomonas aeruginosa [2]; strain A20227, Test 2
  MIC: 4 µg/mL
Pseudomonas aeruginosa [2]; strain A20227, Test 3
  MIC: 2 µg/mL
Pseudomonas aeruginosa [2]; strain A20228, Test 1
  MIC: 2 µg/mL
Pseudomonas aeruginosa [2]; strain A20228, Test 2
  MIC: 8 µg/mL
Pseudomonas aeruginosa [2]; strain A20228, Test 3
  MIC: 2 µg/mL
Pseudomonas aeruginosa [2]; strain A20546, Test 1
  MIC: 2 µg/mL
Pseudomonas aeruginosa [2]; strain A20546, Test 2
  MIC: 2 µg/mL
Pseudomonas aeruginosa [2]; strain A20546, Test 3
  MIC: 2 µg/mL
Pseudomonas aeruginosa [2]; strain A20557, Test 1
  MIC: 2 µg/mL
Pseudomonas aeruginosa [2]; strain A20557, Test 2
  MIC: 4 µg/mL
Pseudomonas aeruginosa [2]; strain A20557, Test 3
  MIC: 4 µg/mL
Pseudomonas aeruginosa [2]; strain A20574, Test 1
  MIC: 4 µg/mL
Pseudomonas aeruginosa [2]; strain A20574, Test 2
  MIC: 2 µg/mL
Pseudomonas aeruginosa [2]; strain A20574, Test 3
  MIC: 2 µg/mL
Pseudomonas aeruginosa [2]; strain A20602, Test 1
  MIC: 4 µg/mL
Pseudomonas aeruginosa [2]; strain A20602, Test 2
  MIC: 8 µg/mL
Pseudomonas aeruginosa [2]; strain A20602, Test 3
  MIC: 2 µg/mL
Pseudomonas aeruginosa [2]; strain A20616, Test 1
  MIC: 2 µg/mL
Pseudomonas aeruginosa [2]; strain A20616, Test 2
  MIC: 4 µg/mL
Pseudomonas aeruginosa [2]; strain A20616, Test 3
  MIC: 4 µg/mL
Pseudomonas aeruginosa [2]; strain A20641, Test 1
  MIC: 8 µg/mL
Pseudomonas aeruginosa [2]; strain A20641, Test 2
  MIC: 8 µg/mL
Pseudomonas aeruginosa [2]; strain A20641, Test 3
  MIC: 8 µg/mL
Pseudomonas aeruginosa [2]; strain A20717, Test 1
  MIC: 16 µg/mL
Pseudomonas aeruginosa [2]; strain A20717, Test 2
  MIC: 32 µg/mL
Pseudomonas aeruginosa [2]; strain A20717, Test 3
  MIC: 16 µg/mL
Pseudomonas aeruginosa [2]; strain A20726, Test 1
  MIC: 2 µg/mL
Pseudomonas aeruginosa [2]; strain A20726, Test 2
  MIC: 8 µg/mL
Pseudomonas aeruginosa [2]; strain A20726, Test 3
  MIC: 8 µg/mL
Pseudomonas aeruginosa [2]; strain A21336, Test 1
  MIC: 4 µg/mL
Pseudomonas aeruginosa [2]; strain A21336, Test 2
  MIC: 8 µg/mL
Pseudomonas aeruginosa [2]; strain A21336, Test 3
  MIC: 4 µg/mL
Pseudomonas aeruginosa [3]; strain A9843A, Test 1, inoculum 2.4 × 10^5
  MBC: 125 µg/mL
Pseudomonas aeruginosa [3]; strain A9910, Test 1, inoculum 2.4 × 10^5, read-out: M.B.C.
  MBC: 125 µg/mL
Pseudomonas aeruginosa [3]; strain A9910, Test 2, inoculum 1.6 × 10^5, read-out: M.B.C.
  MBC: 250 µg/mL
Pseudomonas aeruginosa [3]; strain A9910, Test 3, inoculum 1.4 × 10^5, read-out: M.B.C.
  MBC: 500 µg/mL
Pseudomonas aeruginosa [3]; strain A9926, Test 1, inoculum 2.4 × 10^5, read-out: M.B.C.
  MBC: 250 µg/mL
Pseudomonas aeruginosa [3]; strain A9926, Test 2, inoculum 1.6 × 10^5, read-out: M.B.C.
  MBC: 1000 µg/mL
Pseudomonas aeruginosa [3]; strain A9926, Test 3, inoculum 1.4 × 10^5, read-out: M.B.C.
  MBC: 250 µg/mL
Pseudomonas aeruginosa [3]; strain A20126, Test 1, inoculum 2.4 × 10^5, read-out: M.B.C.
  MBC: 16 µg/mL
Pseudomonas aeruginosa [3]; strain A20126, Test 2, inoculum 1.6 × 10^5, read-out: M.B.C.
  MBC: 63 µg/mL
Pseudomonas aeruginosa [3]; strain A20126, Test 3, inoculum 1.4 × 10^5, read-out: M.B.C.
  MBC: 63 µg/mL
Pseudomonas aeruginosa [3]; strain A20128, Test 1, inoculum 2.4 × 10^5, read-out: M.B.C.
  MBC: 16 µg/mL
Pseudomonas aeruginosa [3]; strain A20128, Test 2, inoculum 1.6 × 10^5, read-out: M.B.C.
  MBC: 16 µg/mL
Pseudomonas aeruginosa [3]; strain A20128, Test 3, inoculum 1.4 × 10^5, read-out: M.B.C.
  MBC: 63 µg/mL
Pseudomonas aeruginosa [3]; strain A20227, Test 1, inoculum 2.4 × 10^5, read-out: M.B.C.
  MBC: 63 µg/mL
Pseudomonas aeruginosa [3]; strain A20227, Test 2, inoculum 1.6 × 10^5, read-out: M.B.C.
  MBC: 8 µg/mL
Pseudomonas aeruginosa [3]; strain A20227, Test 3, inoculum 1.4 × 10^5, read-out: M.B.C.
  MBC: 16 µg/mL
Pseudomonas aeruginosa [3]; strain A20228, Test 1, inoculum 2.4 × 10^5, read-out: M.B.C.
  MBC: 125 µg/mL
Pseudomonas aeruginosa [3]; strain A20228, Test 2, inoculum 1.6 × 10^5, read-out: M.B.C.
  MBC: 500 µg/mL
Pseudomonas aeruginosa [3]; strain A20228, Test 3, inoculum 1.4 × 10^5, read-out: M.B.C.
  MBC: 250 µg/mL
Pseudomonas aeruginosa [3]; strain A20546, Test 1, inoculum 2.4 × 10^5, read-out: M.B.C.
  MBC: 250 µg/mL
Pseudomonas aeruginosa [3]; strain A20546, Test 2, inoculum 1.6 × 10^5, read-out: M.B.C.
  MBC: 1000 µg/mL
Pseudomonas aeruginosa [3]; strain A20546, Test 3, inoculum 1.4 × 10^5, read-out: M.B.C.
  MBC: 500 µg/mL
Pseudomonas aeruginosa [3]; strain A20557, Test 1, inoculum 2.4 × 10^5, read-out: M.B.C.
  MBC: 250 µg/mL
Pseudomonas aeruginosa [3]; strain A20557, Test 2, inoculum 1.6 × 10^5, read-out: M.B.C.
  MBC: 1000 µg/mL
Pseudomonas aeruginosa [3]; strain A20557, Test 3, inoculum 1.4 × 10^5, read-out: M.B.C.
  MBC: 500 µg/mL
Pseudomonas aeruginosa [3]; strain A20574, Test 1, inoculum 2.4 × 10^5, read-out: M.B.C.
  MBC: 250 µg/mL
Pseudomonas aeruginosa [3]; strain A20574, Test 2, inoculum 1.6 × 10^5, read-out: M.B.C.
  MBC: 250 µg/mL
Pseudomonas aeruginosa [3]; strain A20574, Test 3, inoculum 1.4 × 10^5, read-out: M.B.C.
  MBC: 500 µg/mL
Pseudomonas aeruginosa [3]; strain A20602, Test 1, inoculum 2.4 × 10^5, read-out: M.B.C.
  MBC: 250 µg/mL
Pseudomonas aeruginosa [3]; strain A20602, Test 2, inoculum 1.6 × 10^5, read-out: M.B.C.
  MBC: 500 µg/mL
Pseudomonas aeruginosa [3]; strain A20602, Test 3, inoculum 1.4 × 10^5, read-out: M.B.C.
  MBC: 500 µg/mL
Pseudomonas aeruginosa [3]; strain A20616, Test 1, inoculum 2.4 × 10^5, read-out: M.B.C.
  MBC: 125 µg/mL
Pseudomonas aeruginosa [3]; strain A20616, Test 2, inoculum 1.6 × 10^5, read-out: M.B.C.
  MBC: 250 µg/mL
Pseudomonas aeruginosa [3]; strain A20616, Test 3, inoculum 1.4 × 10^5, read-out: M.B.C.
  MBC: 500 µg/mL
Pseudomonas aeruginosa [3]; strain A20641, Test 1, inoculum 2.4 × 10^5, read-out: M.B.C.
  MBC: 125 µg/mL
Pseudomonas aeruginosa [3]; strain A20641, Test 2, inoculum 1.6 × 10^5, read-out: M.B.C.
  MBC: 250 µg/mL
Pseudomonas aeruginosa [3]; strain A20641, Test 3, inoculum 1.4 × 10^5, read-out: M.B.C.
  MBC: 250 µg/mL
Pseudomonas aeruginosa [3]; strain A20717, Test 1, inoculum 2.4 × 10^5, read-out: M.B.C.
  MBC: 500 µg/mL
Pseudomonas aeruginosa [3]; strain A20717, Test 2, inoculum 1.6 × 10^5, read-out: M.B.C.
  MBC: 1000 µg/mL
Pseudomonas aeruginosa [3]; strain A20717, Test 3, inoculum 1.4 × 10^5, read-out: M.B.C.
  MBC: > 1000 µg/mL
Pseudomonas aeruginosa [3]; strain A20726, Test 1, inoculum 2.4 × 10^5, read-out: M.B.C.
  MBC: 32 µg/mL
Pseudomonas aeruginosa [3]; strain A20726, Test 2, inoculum 1.6 × 10^5, read-out: M.B.C.
  MBC: 250 µg/mL
Pseudomonas aeruginosa [3]; strain A20726, Test 3, inoculum 1.4 × 10^5, read-out: M.B.C.
  MBC: 500 µg/mL
Pseudomonas aeruginosa [3]; strain A21336, Test 1, inoculum 2.4 × 10^5, read-out: M.B.C.
  MBC: 250 µg/mL
Pseudomonas aeruginosa [3]; strain A21336, Test 2, inoculum 1.6 × 10^5, read-out: M.B.C.
  MBC: 500 µg/mL
Pseudomonas aeruginosa [3]; strain A21336, Test 3, inoculum 1.4 × 10^5, read-out: M.B.C.
  MBC: 500 µg/mL

## CC1(C)S[C@@H]2[C@H](NC(=O)C(C(=O)O)c3ccccc3)C(=O)N2[C@H]1C(=O)O (stereo partly shown) [Carbenicillin, reference compound]
[4]; 15 min.
  Blood Level: 18100 ng/mL
[4]; 30 min.
  Blood Level: 8100 ng/mL
[4]; 60 min.
  Blood Level: < 4600 ng/mL
[4]; 90 min.
  Blood Level: < 4600 ng/mL
[5]; 15 min.
  Blood Level: 18100 ng/mL
[5]; 30 min.
  Blood Level: 8100 ng/mL
[5]; 60 min.
  Blood Level: < 4600 ng/mL
[5]; 90 min.
  Blood Level: < 4600 ng/mL

Source: patent US4081441A, “Antibacterial agents” (priority 1977, dated 1978)
